Laboratory results: patent US9616019B2, “Nanosuspension of a poorly soluble drug via microfluidization process” (Celgene Corporation, priority 2009, dated 2017)

Assay: Particle size distribution by laser diffraction particle size analyzer
Format: physicochemical
Method: The particle size distribution of the resultant suspensions can be measured using any instrumentation. An example is laser diffraction using a Cilas Particle Size Analyser 1190. The images of the particles can be taken using, for example, the microscope “Olympus”. The resolution rates can be determined, for example, by a pION μDISS Profiler.
An aqueous dispersion of cyclopropyl-N-{2-[(1S)-1-(3-ethoxy-4-methoxyphenyl)-2-(methylsulfonyl)ethyl]-3-oxoisoindoline-4-yl}carboxamide up to 200 mg/ml in 0.5% HPMC E5 were able to be processed through the Microfluidizer processor. […] By processing at 27K psi for 100 passes, the mean particle size by volume was reduced from 8.0 μm to 0.39 μm, while by processing at 15K psi, the mean size was 0.91 μm. The D90 of particle size by number was 0.09 μm.
Nanosuspensions were formed by initially stirring the micronized cyclopropyl-N-{2-[(1S)-1-(3-ethoxy-4-methoxyphenyl)-2-(methylsulfonyl)ethyl]-3-oxoisoindoline-4-yl}carboxamide in aqueous excipient solutions including PVP, CMC, HPMC, PEG, PEO, Transcutol, glycerin, and/or various surfactants for wetting and solubilization, followed by passing through a high-shear microfluidizer processor. The particle size distribution of the resultant suspensions was measured by a laser diffraction particle size analyzer. The images of the particles were taken using a microscope.
Aqueous dispersions of cyclopropyl-N-{2-[(1S)-1-(3-ethoxy-4-methoxyphenyl)-2-(methylsulfonyl)ethyl]-3-oxoisoindoline-4-yl}carboxamide up to 200 mg/ml in polymeric excipients were processed with this approach. The 200 mg/mL nanosuspension was physically stable at room temperature for 2 months, based on the images and particle size analysis. The D90 of particle size by number was 0.09 μm. […] Upon dilution from 200 mg/ml to 25 mg/ml with specific surfactants, the solubility increased 40 fold over 40 minutes.

D90 of particle size by number: 0.09 μm
mean particle size by volume (before microfluidization): 8.0 μm
mean particle size (optimal process pressure and time): 0.05 μm
mean particle size by volume (processing at 15K psi): 0.91 μm
mean particle size (processing at 15K psi (Example 4)): 0.08 μm
mean particle size by volume (processing at 27K psi for 100 passes, 0.5% HPMC E5): 0.39 μm
mean particle size (processing at 27K psi for 130 passes): 0.05 µm
Structure (SMILES): CCOc1cc([C@@H](CS(C)(=O)=O)N2Cc3cccc(NC(=O)C4CC4)c3C2=O)ccc1OC [cyclopropyl-N-{2-[(1S)-1-(3-ethoxy-4-methoxyphenyl)-2-(methylsulfonyl)ethyl]-3-oxoisoindoline-4-yl}carboxamide]
